Reference: US10793557B2, “Sting agonist compounds” (Merck Sharp & Dohme Corp., priority 2018, dated 2020)

Columns and labels:
full-length HAQ STING = target: T1, full-length HAQ STING (Homo sapiens, UniProt Q86WV6, G230A/H232R/R293Q/R71H); assay: 3H-cGAMP filtration binding assay (HAQ STING); conditions: competition with tritiated cGAMP, HAQ STING membrane
T1 construct: AviTag (after GG linker) (C); HRV3C cleavage site (after GS linker) (C); HIS8 (C); made in house; host or cells: Trichoplusia ni (Hi-Five) insect cells infected with baculovirus (virus generated and amplified in Sf21 cells); used as a washed membrane preparation
T1 sequence (Q86WV6 with tags, fused parts or gaps R71H/G230A/H232R/R293Q): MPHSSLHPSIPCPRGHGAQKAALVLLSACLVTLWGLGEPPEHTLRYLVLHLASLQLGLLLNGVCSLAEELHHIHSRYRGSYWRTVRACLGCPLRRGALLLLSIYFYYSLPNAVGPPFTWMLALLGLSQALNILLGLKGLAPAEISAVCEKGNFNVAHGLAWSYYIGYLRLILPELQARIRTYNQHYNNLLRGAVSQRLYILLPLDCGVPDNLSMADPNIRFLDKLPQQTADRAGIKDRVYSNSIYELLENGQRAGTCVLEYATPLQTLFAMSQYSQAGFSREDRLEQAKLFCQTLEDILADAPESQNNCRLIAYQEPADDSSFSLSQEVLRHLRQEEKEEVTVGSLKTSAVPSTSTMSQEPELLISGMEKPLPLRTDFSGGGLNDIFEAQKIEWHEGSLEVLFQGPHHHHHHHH
From the text: The ability of compounds to bind STING is quantified by the ability to compete with tritiated cGAMP ligand for human STING receptor membrane using a radioactive filter-binding assay. The binding assay employs STING receptor obtained from Hi-Five cell membranes overexpressing full-length HAQ STING prepared in-house and tritiated cGAMP ligand also purified in-house.
(§1) The ability of compounds to bind STING is quantified by their ability to compete with tritiated cGAMP ligand for human STING receptor membrane using a radioactive filter-binding assay. The binding assay employs STING receptor obtained from Trichoplusia ni cell membranes (T. ni; Expression Systems, cat #94-002F, www.expressionsystems.com) overexpressing full-length HAQ STING and tritiated cGAMP ligand.
The basic HAQ STING filtration assay protocol is as follows:
The compounds were serially titrated by the Hamilton STARPlus CORE in a 96-well plate (Greiner, #651201) using a 1:3 ten-point dose response format. After compound preparation, a 2.2 ug/ml working concentration of STING membrane (SEQ. ID. No. 1) was prepared by diluting concentrated membrane into assay buffer (1×PBS; Invitrogen # SH30028.02) and douncing 7× using a manual tissue homogenizer (Wheaton, #357546). 148 uL of prepared membrane was then manually added to each well of a 96-well deep-well polypropylene plate (Fisher Scientific, #12-566-121). Following membrane addition, 2 uL of either titrated test compound, DMSO control (Sigma #276855), or cold cGAMP control was added to the appropriate wells using a BIOMEK FX. Compound and membrane then preincubated for 60 min at RT to allow compound binding to equilibrate. Following equilibration, 8 nM of [^3H]c-GAMP ligand was prepared by diluting into assay buffer, and 50 uL of this working stock was then manually added to each well of the assay plate. Plates were then incubated at RT for 60 min, and the contents of each assay plate were then filtered through a 96-well GF/B filter plate (PerkinElmer, #6005250) using a TOMTEC MACH III Cell Harvester equipped with 20 mM HEPES buffer (Fisher Scientific, # BP299500). The filter plates were then dried at 55° C. for 30 min using a pressurized oven before 30 uL of ULTIMA GOLD F scintillate was added to each well. Tritium levels for each reaction well were then measured using a PerkinElmer TopCount plate reader.
(§2) After normalization to controls, the percent activity for each compound concentration was calculated by measuring the amount of remaining radioactivity. The plot of percent activity versus the log of compound concentration was fit with a 4-parameter dose response equation to calculate EC50 values.

full-length WT STING = target: T2, full-length WT STING (Homo sapiens, UniProt Q86WV6, H232R); assay: 3H-cGAMP filtration binding assay (WT STING); conditions: for EC50: competition with tritiated cGAMP, WT STING membrane
T2 construct: AviTag (after gg linker) (C); HRV3C cleavage site (after gs linker) (C); HIS8 (C); made in house; host or cells: Trichoplusia ni (Hi-Five) insect cells infected with baculovirus (virus generated and amplified in Sf21 cells); used as a washed membrane preparation
T2 sequence (Q86WV6 with tags, fused parts or gaps H232R): as the sequence (Q86WV6 with tags, fused parts or gaps R71H/G230A/H232R/R293Q) above, with H71R, A230G, Q293R counted along it
Description: as §1, with “WT” for “HAQ”
The basic WT STING filtration assay protocol is as follows:
16 nM of [^3H] c-GAMP ligand was prepared by diluting into assay buffer, and 50 uL of this working stock was manually added to each well of the assay plate. After ligand addition, 2 uL of either titrated test compound, DMSO control (Sigma #276855), or cold cGAMP control was added to the appropriate wells using a BIOMEK FX. The serially titrated compound was prepared on a Hamilton STARPlus CORE in a 96-well plate (Greiner, #651201) using a 1:3 ten-point dose response format. Following compound addition, a 2.2 ug/ml working concentration of STING membrane (SEQ. ID. No. 3) was prepared by diluting concentrated membrane into assay buffer (1×PBS; Invitrogen # SH30028.02) and douncing 7× using a manual tissue homogenizer (Wheaton, #357546). 148 uL of this prepared membrane was then manually added to each well of a 96-well deep-well polypropylene plate (Fisher Scientific, #12-566-121). Compound, ligand, and membrane then incubated for 60 min at RT before the contents of each assay plate were filtered through a 96-well GF/B filter plate (PerkinElmer, #6005250) using a TOMTEC MACH III Cell Harvester equipped with 20 mM HEPES buffer (Fisher Scientific, # BP299500). The filter plates were then dried at 55° C. for 30 min using a pressurized VWR oven before 30 uL of ULTIMA GOLD F scintillate was added to each well. Tritium levels for each reaction well were then measured using a PerkinElmer TopCount plate reader.
as §2

[1] = system: secretion of interferon-beta from THP1 cells; assay: IFN-β secretion in THP1 cell culture (5 h); type: cell-based; conditions: Homo sapiens, THP-1, 5 h, 30 uM cGAMP = 100%; for activation at 3 µM: compound at 3 uM, read-out: % Effect relative to 2′3′-cGAMP (@ 3 uM); for activation at 30 µM: compound at 30 μM, read-out: % Effect at 30 μM relative to 2′3′-cGAMP
Description: The ability of compounds to stimulate the secretion of interferon-beta from THP1 cells was measured using a human IFN-β AlphaLISA kit (Perkin Elmer, Cat. No. AL265F). The basic protocol is as follows:
A Labcyte Echo 550 acoustic dispenser was used to transfer 120 nL of compound dissolved in DMSO into the wells of an empty, sterile 384-well microplate, (Corning, Cat. No. 3712). THP1 cells (American Type Culture Collection, Cat. No. TIB202) previously frozen in Recovery Medium (Life Technologies, Cat. No. 12648-010) were thawed and immediately diluted 10-fold into 37° C. assay medium (RPMI 1640+L-Glutamine & phenol red, Life Technologies, Cat. No. 11875-085; 0.5% heat inactivated fetal bovine serum, Sigma Aldrich, Cat. No. F4135; 1 mM Sodium Pyruvate, Life Technologies, Cat. No. 11360-070; 1× non-essential amino acids; Life Technologies, Cat. No. 11140-050). The cell viability and count was ascertained using a Beckman Coulter V-Cell XR cell counter. The cells suspension was centrifuged at 200×g for 5 min at RT. Cells were resuspended to a density of 0.8×10^6/mL in 37° C. assay medium. Subsequent liquid transfers were performed using either a Matrix electronic multichannel pipette or an Agilent Bravo Automated Liquid Handling Platform.
The assay was started by dispensing 40 μL of the previously prepared cell suspension into the wells of the plate containing compounds. After 5 h incubation at 37° C., 5% CO2 in a humidified atmosphere, the plate of cells and compounds was centrifuged at 200×g for 5 min at RT. From each well, 5 μL of supernatant was transferred into corresponding wells of a white 384-well plate (Perkin Elmer, Cat. No. 6005620). To these supernatant-containing wells was added 10 μL of 5× Anti-Analyte Acceptor beads (50 μg/mL of AlphaLISA HiBlock Buffer) and incubated for 30 min at RT while shaking on an orbital plate shaker. To each well was added 10 μL of 5× Biotinylated Antibody Anti-analyte (5 nM in AlphaLISA HiBlock Buffer) and incubated on an orbital plate shaker for 60 min at RT or overnight at 4° C. To each well was added 25 μL of 2× SA-Donor beads (80 μg/mL in AlphaLISA HiBlock Buffer) and incubated for 30-45 min at RT in the dark while shaking on an orbital plate shaker. The plate was then read on a Perkin Elmer Envision (λex=680 nm, […]). The percent effect of the AlphaLISA signal at each compound concentration was calculated based on 30 uM cGAMP positive controls and 0.3% DMSO negative controls. The plot of percent effect versus the log of compound concentration was fit with a 4-parameter concentration response equation to calculate EC50 values. The test compounds were tested at concentrations 30000, 10000, 3333, 1111, 370.4, 123.4, 41.2, 13.7, 4.6, and 1.5 nM with 0.3% residual DMSO. The control compound, cGAMP was tested at concentrations 100000, 33333, 11111, 3704, 1235, 412, 137, 46, and 15 nM with 0.3% residual DMSO.
Compounds of the disclosure were evaluated for IFN-β secretion in THP1 cell culture as described above. The following table tabulates the biological data for these compounds as percent activation relative to 2′3′-cGAMP at the 30 µM concentration.

SMILES | EC50 (full-length HAQ STING) [nM] | inhibition at 2 µM (full-length WT STING; at 2,000 nM compound) [%] | EC50 (full-length WT STING) [nM] | inhibition at 20 µM (full-length WT STING; at 20,000 nM compound) [%] | activation at 3 µM [1] [%] | activation at 30 µM [1] [%]
COc1cc2sc(CC[C@H](C)C(=O)O)cc2cc1OCCCOc1c(O)cc2sc(C(=O)C[C@H](C)C(=O)O)cc2c1Cl [Example 184, (S)-4-(5-(3-((2-((S)-3-carboxybutyl)-6-methoxybenzo[b]thiophen-5-yl)oxy)propoxy)-4-chloro-6-hydroxybenzo[b]thiophen-2-yl)-2-methyl-4-oxobutanoic acid] | 353 | 29 | – | – | 10 | –
COc1cc2sc(C(=O)C[C@H](C)C(=O)O)cc2c(Cl)c1OCCCOc1cc2cc(C(=O)C[C@H](C)C(=O)O)sc2cc1O [Example 182, (S)-4-(5-(3-((2-((S)-3-carboxybutanoyl)-4-chloro-6-methoxybenzo[b]thiophen-5-yl)oxy)propoxy)-6-hydroxybenzo[b]thiophen-2-yl)-2-methyl-4-oxobutanoic acid] | 1 | – | 2 | – | 147 | –
COc1cc2sc(C(=O)CCC#N)cc2cc1CCCc1cc2cc(C(=O)CCC(=O)O)sc2cc1OC [Example 24, 4-(5-(3-(2-(3-cyanopropanoyl)-6-methoxybenzo[b]thiophen-5-yl)propyl)-6-methoxybenzo[b]thiophen-2-yl)-4-oxobutanoic acid] | 17800 | – | – | 39 | – | 150
COc1cc2sc(C(=O)CCC(=O)O)cc2cc1OCCCOc1nc2cc(C(=O)C[C@H](C)C(=O)O)sc2cc1OC [Example 18, (S)-4-(5-(3-((2-(3-carboxypropanoyl)-6-methoxybenzo [b]thiophen-5-yl)oxy)propoxy)-6-methoxythieno [3,2-b]pyridin-2-yl)-2-methyl-4-oxobutanoic acid] | 2 | – | 8 | – | – | 62

Further lines, with some results ahead:

EC50 (full-length HAQ STING) [nM] | inhibition at 2 µM (full-length WT STING; at 2,000 nM compound) [%] | EC50 (full-length WT STING) [nM] | inhibition at 20 µM (full-length WT STING; at 20,000 nM compound) [%] | SMILES | activation at 3 µM [1] [%] | activation at 30 µM [1] [%]
20 | – | 69 | – | COc1cc2sc(C(=O)C[C@H](C)C(=O)O)cc2c(F)c1OCCCOc1cc2sc(C(=O)[C@@H]3CC[C@H]3C(=O)O)cc2c(F)c1OC (single isomer, unassigned) [Example 97] | – | –
2 | – | 9 | – | COc1cc2sc(C(=O)C[C@H](C)C(=O)O)cc2nc1OCCOc1c(OC)cc2sc(C(=O)C[C@H](C)C(=O)O)cc2c1F (racemic) [Example 19, rac-(R)-4-(5-(2-((2-((R)-3-carboxybutanoyl)-4-fluoro-6-methoxybenzo[b]thiophen-5-yl)oxy)ethoxy)-6-methoxythieno[3,2-b]pyridin-2-yl)-2-methyl-4-oxobutanoic acid] | – | 30
1 | – | 4 | – | COc1cc2sc(C(=O)CCC(=O)O)cc2cc1CCCOc1c(OC)cc2sc(C(=O)C[C@H](C)C(=O)O)cc2c1F [Example 33, (S)-4-(5-(3-(2-(3-carboxypropanoyl)-6-methoxybenzo [b]thiophen-5-yl)propoxy)-4-fluoro-6-methoxybenzo[b]thiophen-2-yl)-2-methyl-4-oxobutanoic acid] | – | 104
1 | – | – | – | COc1cc2sc(C(=O)C[C@H](C)C(=O)O)cc2c(F)c1OCCCOc1c(OC)cc2sc(C(=O)[C@@H]3CC[C@H]3C(=O)O)cc2c1F [Example 99, trans-2-(5-(3-((2-((S)-3-carboxybutanoyl)-4-fluoro-6-methoxybenzo[b]thiophen-5-yl)oxy)propoxy)-4-fluoro-6-methoxybenzo[b]thiophene-2-carbonyl)cyclobutane carboxylic acid] | – | –
1 | – | – | – | COc1cc2sc(C(=O)C[C@H](C)C(=O)O)cc2c(F)c1OCCCOc1c(OC)cc2sc(C(=O)[C@@H]3CC[C@H]3C(=O)O)cc2c1F [Example 98, trans-2-(5-(3-((2-((S)-3-carboxybutanoyl)-4-fluoro-6-methoxybenzo[b]thiophen-5-yl)oxy)propoxy)-4-fluoro-6-methoxybenzo[b]thiophene-2-carbonyl)cyclobutane carboxylic acid] | – | 92
